In patent US8716312B2, “Inhibitors of diacylglycerol acyltransferase” (Merck Sharp & Dohme Corporation, priority 2008, dated 2014):

Biological target: T1, human DGAT1 enzyme (Homo sapiens, UniProt O75907)
T1 sequence (O75907 1-488): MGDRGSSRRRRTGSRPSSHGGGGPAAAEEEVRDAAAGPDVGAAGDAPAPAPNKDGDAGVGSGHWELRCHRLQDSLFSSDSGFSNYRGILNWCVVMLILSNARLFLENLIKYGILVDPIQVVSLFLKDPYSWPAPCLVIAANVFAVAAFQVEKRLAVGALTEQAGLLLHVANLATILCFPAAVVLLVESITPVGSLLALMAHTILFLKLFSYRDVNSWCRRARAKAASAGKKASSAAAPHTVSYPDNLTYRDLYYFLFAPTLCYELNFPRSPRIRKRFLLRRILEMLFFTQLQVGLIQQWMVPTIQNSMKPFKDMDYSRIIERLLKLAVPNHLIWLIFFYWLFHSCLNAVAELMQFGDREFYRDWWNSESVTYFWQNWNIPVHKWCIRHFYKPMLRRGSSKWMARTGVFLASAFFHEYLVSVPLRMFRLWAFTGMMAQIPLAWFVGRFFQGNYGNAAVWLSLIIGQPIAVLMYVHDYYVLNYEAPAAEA
Assay: in vitro DGAT1 inhibition assay (microsomes, [14C]-palmitoyl-CoA, SPA beads)
Description: The in vitro assay to identify DGAT1 inhibitors uses human DGAT1 enzyme expressed in Sf9 insect cells prepared as microsomes. The reaction is initiated by the addition of the combined substrates 1,2-dioleoyl-sn-glycerol and [^14C]-palmitoyl-Co A and incubated with test compounds and microsomal membranes for 2 hours at room temperature. The assay is stopped by adding 0.5 mg wheat germ agglutinin beads in assay buffer with 1% Brij-35 and 1% 3-cholamidopropyldimethyl-ammonio-1-propane sulfonate. Plates are sealed with TopSeal and incubated for 18 hours to allow the radioactive triglyceride product to come into proximity with the bead. Plates are read on a TopCount instrument.
Percent inhibition was calculated as the percent of (test compound inhibition minus non-specific binding) relative to (total binding minus non-specific binding). IC50 values were determined by curve fitting the data to a Sigmoidal dose-response in GraphPad Prism utilizing the following equation: Y=A+(B−A)/(1+10^((Log IC50−X))), where A and B are the bottom and top of the curve (highest and lowest inhibition), respectively, and X is the logarithm of concentration.

Structure (SMILES) | IC50 [nM]
O=C(Nc1ccc(N2CCCN(C(=O)C(O)c3cc(F)cc(F)c3)CC2)nc1)c1oc(N2CCC(c3ccccc3)CC2)nc1C(F)(F)F (stereo not shown) [Compound 202, N-(6-(4-(2-(3,5-difluorophenyl)-2-hydroxyacetyl)-1,4-diazepan-1-yl)pyridin-3-yl)-2-(4-phenylpiperidin-1-yl)-4-(trifluoromethyl)oxazole-5-carboxamide] | 11 to 100
CC1CCCN(c2nc(C(F)(F)F)c(C(=O)Nc3ccc(N4CCN(C(=O)[C@H](O)C5CCCCC5)CC4)nc3)o2)C1 (stereo partly drawn) [Compound 196, N-(6-(4-((R)-2-cyclohexyl-2-hydroxyacetyl)piperazin-1-yl)pyridin-3-yl)-2-(3-methylpiperidin-1-yl)-4-(trifluoromethyl)oxazole-5-carboxamide] | 11 to 100
O=C(Nc1ccc(N2CCN(C(=O)[C@H](O)c3ccccc3)CC2)nc1)c1oc(N2CCC(c3ccccc3)CC2)nc1C(F)(F)F [Compound 200, (R)—N-(6-(4-(2-hydroxy-2-phenylacetyl)piperazin-1-yl)pyridin-3-yl)-2-(4-phenylpiperidin-1-yl)-4-(trifluoromethyl)oxazole-5-carboxamide] | 11 to 100
CC1CCCN(c2nc(C(F)(F)F)c(C(=O)Nc3ccc(N4CCCN(C(=O)[C@H]5CC[C@@H](C(=O)O)CC5)CC4)nc3)o2)C1 (stereo partly shown) [Compound 185, (1s,4s)-4-(4-(5-(2-(3-Methylpiperidin-1-yl)-4-(trifluoromethyl)oxazole-5-carboxamido)pyridin-2-yl)-1,4-diazepane-1-carbonyl)cyclohexanecarboxylic acid] | 101 to 500
CC1CCCN(c2nc(C(F)(F)F)c(C(=O)Nc3ccc(N4CCN(C(=O)C(O)C(F)(F)F)CC4)nc3)o2)C1 (stereo not shown) [Compound 194, 2-(3-methylpiperidin-1-yl)-N-(6-(4-(3,3,3-trifluoro-2-hydroxypropanoyl)piperazin-1-yl)pyridin-3-yl)-4-(trifluoromethyl)oxazole-5-carboxamide] | 11 to 100
CC1CCCN(c2nc(C(F)(F)F)c(C(=O)Nc3ccc(N4CCCN(C(=O)c5cccc(C(=O)O)c5)CC4)nc3)o2)C1 (stereo not shown) [Compound 190, 3-(4-(5-(2-(3-methylpiperidin-1-yl)-4-(trifluoromethyl)oxazole-5-carboxamido)pyridin-2-yl)-1,4-diazepane-1-carbonyl)benzoic acid] | 101 to 500
CC1CCCN(c2nc(C(F)(F)F)c(C(=O)Nc3ccc(NC4CN(C(=O)Nc5ccccc5F)C4)nc3)o2)C1 (stereo not shown) [Compound 223, N-(6-(1-(2-fluorophenylcarbamoyl)azetidin-3-ylamino)pyridin-3-yl)-2-(3-methylpiperidin-1-yl)-4-(trifluoromethyl)oxazole-5-carboxamide] | 101 to 500

The remaining lines, values ahead:

IC50 [nM] | Structure (SMILES)
101 to 500 | O=C(Nc1ccc(N2CCN(C(=O)Cc3ccccc3O)CC2)nc1)c1oc(N2CCC(c3ccccc3)CC2)nc1C(F)(F)F [Compound 226, N-(6-(4-(2-(2-hydroxyphenyl)acetyl)piperazin-1-yl)pyridin-3-yl)-2-(4-phenylpiperidin-1-yl)-4-(trifluoromethyl)oxazole-5-carboxamide]
101 to 500 | Cc1ccccc1NC(=O)c1ccc2c(c1)Cc1cc(NC(=O)c3oc(N4CCCC(C)C4)nc3C(F)(F)F)ccc1-2 (stereo not shown) [Compound 235, 2-(3-methylpiperidin-1-yl)-N-(7-(o-tolylcarbamoyl)-9H-fluoren-2-yl)-4-(trifluoromethyl)oxazole-5-carboxamide]
101 to 500 | O=C(Nc1ccc(N2CCN(C(=O)C3Cc4ccccc4N3)CC2)nc1)c1oc(N2CCC(c3ccccc3)CC2)nc1C(F)(F)F (stereo not shown) [Compound 240, N-(6-(4-(indoline-2-carbonyl)piperazin-1-yl)pyridin-3-yl)-2-(4-phenylpiperidin-1-yl)-4-(trifluoromethyl)oxazole-5-carboxamide]
11 to 100 | CC1CCCN(c2nc(C(F)(F)F)c(C(=O)Nc3ccc(N4CCC(OCc5cccc(C(=O)O)c5)CC4)nc3)o2)C1 (stereo not shown) [Compound 254, 3-((1-(5-(2-(3-methylpiperidin-1-yl)-4-(trifluoromethyl)oxazole-5-carboxamido)pyridin-2-yl)piperidin-4-yloxy)methyl)benzoic acid]
101 to 500 | O=C(Nc1ccc(N2CCN(C(=O)C3NCCc4ccccc43)CC2)nc1)c1oc(N2CCC(c3ccccc3)CC2)nc1C(F)(F)F (stereo not shown) [Compound 242, 2-(4-phenylpiperidin-1-yl)-N-(6-(4-(1,2,3,4-tetrahydroisoquinoline-1-carbonyl)piperazin-1-yl)pyridin-3-yl)-4-(trifluoromethyl)oxazole-5-carboxamide]
101 to 500 | O=C(Nc1ccc(N2CCN(c3nc4ccccc4[nH]3)CC2)nc1)c1oc(N2CCC(c3ccccc3)CC2)nc1C(F)(F)F [Compound 237, N-(6-(4-(1H-benzo[d]imidazol-2-yl)piperazin-1-yl)pyridin-3-yl)-2-(4-phenylpiperidin-1-yl)-4-(trifluoromethyl)oxazole-5-carboxamide]
